Source: paper PMC7125202, “Targeting of radioactive platinum-bisphosphonate anticancer drugs to bone of high metabolic activity” (Scientific Reports, 2020)

How the values were obtained:
[1] = Pt-BP pH stability assessed by 31P NMR; type: physicochemical; conditions: 120 mM NaCl, D2O, 37 °C
Description: ^31P NMR spectra were recorded on a Bruker Avance III […] instrument. Standard pulse sequences were used for ^31P{1H} (121.5 MHz) spectra. Chemical shifts (^31P) were referenced to external H3PO4 (85% w/w; 0 ppm). A Crison Micro-pH meter Model 2002, equipped with Crison microcombination electrodes (5- and 3-mm diameter) and calibrated with Crison standard buffer solution at pH 4.01, 7.02, and 10.00, was used for pH measurements. The pH readings from the pH meter for D2O solutions are indicated as pD values and are uncorrected for the effect of deuterium on glass electrodes. The stability of Pt-BP in buffered solutions at 37 °C was assessed by ^31P NMR spectroscopy as previously reported. Pt-BP (∼4 mg) was dissolved in 0.8 mL of D2O containing (i) 50 mM 4-(2-hydroxyethyl)-1-piperazineethanesulfonic acid) (HEPES) buffer (pD = 7.4) and 120 mM NaCl or (ii) 50 mM 2-(N-morpholino)ethanesulfonic acid (MES) buffer (pD = 5.25) and 120 mM NaCl. The resulting two solutions were transferred into NMR tubes and maintained at 37 °C. ^31P NMR spectra were recorded over a period of 15 days. The relative concentrations of the individual species in solution were deduced from integration of the ^31P signals.
To investigate the stability of Pt-BP in near-physiological conditions, we utilized a medium consisting of D2O containing HEPES buffer (50 mM, pH = 7.4) and NaCl (120 mM) at 37 °C, in which we analyzed Pt-BP stability by ^31P-NMR spectroscopy. […] Two other asymmetrical species are visible in the ^31P-NMR spectrum recorded after 3 h as evidenced by the two pairs of doublets falling at 28.15 and 22.98 ppm and 26.25 and 21.51 ppm (indicated by the black squares and diamonds in Supplement Fig. 2A). […]
To simulate the acidic environment in tumor tissue^3,4, we explored the stability of Pt-BP complexes at pD = 5.25 at 37 °C by ^31P-NMR spectroscopy (Supplement Fig. 2B). […] However, the formation of M was slower at acidic pD, while its hydrolysis, with concomitant formation of free bisphosphonate (BP), was faster than at pD 7.4 since Pt-BP and BP were detected after 48 h (Supplement Fig. 2B).

[2] = cited from earlier work

NCCN.NCCN.O.O.O.O=S(=O)([O-])O.[NH3+]CC1(O)P2(=O)[O][Pt][O]P1(=O)[O][Pt][O]2 (centres unmarked) [Pt-BP, dinuclear bis<ethylenediamineplatinum(II) > -2-amino-1-hydroxyethane-1,1-diyl-bisphosphonate complex]
time of release of both Pt(en) moieties (free BP detected) ([1]; pD 5.25, 50 mM MES): 48 h
time after which no traces of the starting Pt-BP complex were observed ([1]; pD 7.4, 50 mM HEPES): ≤ 24 h
time of release of the second Pt(en) moiety (appearance of free BP) ([1]; pD 7.4, 50 mM HEPES): 96 h
stability in neutral aqueous solution ([2]; pH 7.0, room temperature): stable in neutral aqueous solution (pH 7.0, room temperature) for several months
stability in water at pH > 8.0 ([2]; pH > 8.0): rearranges rather than decomposes
